Source: US10750742B2, “Pesticidally active pyrazole derivatives” (SYNGENTA PARTICIPATIONS AG, priority 2015, dated 2020)
Like-named read-outs stand apart in the source and are kept apart here. Each block holds one compound with its values, some of them ahead of it.

How the values were obtained:
Spodoptera littoralis [1] = assay: Comparison: insecticidal activity against Spodoptera littoralis, larvicide L-3, feeding/contact, soybean plants; format: in vivo; settings: 120 h
Protocol: (§1) Biological Comparison Data:
(§2) Compound A and B are disclosed in WO2014/122083 as example (Ic-1) (p. 76) and (lc-2) (p. 82, Table 3). The activities of compounds A and B to treat different pests are compared with the activities of compound 4, 6, 15 and 35 according to the present invention. The tests are carried out at different concentrations (ppm).
a) Insecticidal Activity Against Spodoptera littoralis (Egyptian Cotton Leaf Worm, Larvicide L-3, Feeding/Contact)
Soybean plants were sprayed with diluted test solutions in an application chamber. The plants (2 replicates) were infested with 10 L3 larvae 1 day after treatment. Samples were checked 5 days after infestation for mortality, feeding behavior, and growth regulation.

Thrips tabaci [2] = assay: Comparison: insecticidal activity against Thrips tabaci, sunflower leaf discs; format: in vivo; settings: 6 days after infestation; for mortality at 0.05 ppm / mortality at 0.2 ppm / mortality at 0.781 ppm / mortality at 0.8 ppm / mortality at 3 ppm / mortality at 3.12 ppm / mortality at 12.5 ppm / mortality at 50 ppm / mortality at 200 ppm: Thrips tabaci, foliar, 144 h
Protocol: as §1, §2
b) Insecticidal Activity Against Thrips tabaci (Onion Thrips):
(§3) Sunflower leaf discs were placed on agar in 24-well microtiter plates and sprayed with aqueous test solutions prepared from 10′000 ppm DMSO stock solutions. After drying the leaf discs were infested with a thrips population of mixed ages. The samples were assessed for mortality 6 days after infestation.

Myzus persicae [3] = assay: Myzus persicae (green peach aphid), sucrose solution / Parafilm test; format: in vivo; settings: 120 h
How it was run: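 Compound mixed into sucrose solution at 12.5 ppm under stretched Parafilm; aphid-infested pea seedlings set on the membrane and plate inverted so insects feed through it. Mortality assessed 5 days after infestation.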

Euschistus heros = Euschistus heros (neotropical brown stink bug), soybean leaf test; format: in vivo; settings: 120 h, read-out: effect in at least one of the two categories (mortality or growth inhibition); for percent effect (mortality or growth inhibition) at 200 ppm: application rate 200 ppm, N2 nymphs, 5 days after infestation
Protocol: Euschistus heros (Neotropical Brown Stink Bug):
Soybean leaves on agar in 24-well microtiter plates were sprayed with aqueous test solutions prepared from 10′000 ppm DMSO stock solutions. After drying the leaves were infested with N2 nymphs. The samples were assessed for mortality and growth inhibition in comparison to untreated samples 5 days after infestation.

Plutella xylostella = Plutella xylostella (diamond back moth), artificial diet test; format: in vivo; settings: 120 h, read-out: control (mortality and growth inhibition)
Protocol: Plutella xylostella (Diamond Back Moth):
(§4) 24-well microtiter plates with artificial diet were treated with aqueous test solutions prepared from 10′000 ppm DMSO stock solutions by pipetting. After drying, the plates were infested with L2 larvae (10 to 15 per well). The samples were assessed for mortality and growth inhibition in comparison to untreated samples 5 days after infestation.

Spodoptera littoralis [4] = assay: Spodoptera littoralis (Egyptian cotton leaf worm), cotton leaf disc spray test; format: in vivo; settings: foliar, 72 h, read-out: control (at least one of mortality, anti-feedant effect, growth inhibition); for percent control (mortality, anti-feedant effect or growth inhibition) at 200 ppm: application rate 200 ppm, L1 larvae, 3 days after infestation
How it was run: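 Cotton leaf discs on agar were sprayed with aqueous dilutions of 10′000 ppm DMSO stocks, dried and infested with five L1 larvae. Mortality, anti-feedant effect and growth inhibition were scored against untreated samples 3 days after infestation. Control = any of these higher than untreated.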

Diabrotica balteata = Diabrotica balteata (corn root worm), maize sprout test; format: in vivo; settings: 96 h, read-out: control (mortality and growth inhibition)
Protocol: Diabrotica balteata, (Corn Root Worm)
as §4, with “Maize sprouts, placed on an agar layer in 24-well” for “24-well”, “plates” for “plates with artificial diet”, “spraying.” for “pipetting.”, “(6” for “(10”, “10” for “15”, “4” for “5”

Myzus persicae [5] = assay: Myzus persicae (green peach aphid), sunflower leaf disc spray test; format: in vivo; settings: foliar, 144 h
Protocol: Myzus persicae (Green Peach Aphid):
Sunflower leaf discs were placed on agar in a 24-well microtiter plate and sprayed with test solutions at an application rate of 200 ppm. After drying, the leaf discs were infested with an aphid population of mixed ages. After an incubation period of 6 DAT, samples were checked for mortality. The following compounds gave at least 80% mortality of Myzus persicae: compounds 1,2, 3, 4, 5, 6, 11, 12, 15, 17, 18, 19, 20, 23, 24, 25, 26, 27, 30, 32, 33, 34 35, 41, 43, 44, 47, 50, 55, 58, 59, 60, 61, 62, 63, 64, 65 and 66.

Thrips tabaci [6] = assay: Thrips tabaci (onion thrips), sunflower leaf disc test; format: in vivo; settings: foliar, 144 h, read-out: control (mortality)
Protocol: Thrips tabaci (Onion Thrips):
as §3

Tetranychus urticae = Tetranychus urticae (two-spotted spider mite), bean leaf disc test; format: in vivo; settings: foliar, 192 h, read-out: control (mortality on mixed population, mobile stages)
Protocol: Tetranychus urticae (Two-Spotted Spider Mite):
as §3, with “Bean” for “Sunflower”, “discs” for “discs were placed”, “were” for “and”, “mite” for “thrips”, “on mixed population (mobile stages) 8” for “6”

[7] = test rate of 12 ppm, sucrose solution, 5 days after infestation, read-out: mortality
[8] = application rate 200 ppm, L2 larvae, 5 days after infestation
[9] = 12.5 ppm, read-out: Mortality (%)
[10] = application rate 200 ppm, L2 larvae, 4 days after infestation
[11] = application rate 200 ppm, mixed ages, 6 DAT, read-out: mortality
[12] = application rate 200 ppm, mixed ages, 6 days after infestation
[13] = application rate 200 ppm, 8 days after infestation

melting point: 59 to 61 °C
SMILES: Cn1nc(OC(F)(F)C(F)C(F)(F)F)c(C(F)(F)F)c1-n1cc(-c2cccc(C(=O)NC3(C#N)CC3)c2F)cn1 (centres unmarked)

melting point: 114 to 116 °C
SMILES: CN1N=C(OC(F)(F)C(F)C(F)(F)F)C(C(F)(F)F)C1n1cc(-c2cc(F)c(Cl)c(C(=O)NC3CC3)c2)cn1 (centres unmarked)

melting point: 82 to 84 °C
SMILES: CN1N=C(OC(F)(F)C(F)C(F)(F)F)C(C(F)(F)F)C1n1cc(-c2cc(F)c(Cl)c(C(=O)NC3(C#N)CC3)c2)cn1 (centres unmarked)

melting point: 68 to 70 °C
SMILES: Cn1nc(OC(F)(F)C(F)C(F)(F)F)c(C(F)(F)F)c1-n1cc(-c2cc(C(=O)NC3CC3)c(Cl)cc2F)cn1 (centres unmarked)

melting point: 67 to 70 °C
SMILES: Cn1nc(OC(F)(F)C(F)C(F)(F)F)c(C(F)(F)F)c1-n1cc(-c2cc(Cl)c(Cl)c(C(=O)NC3CC3)c2)cn1 (centres unmarked)

melting point: 162 to 165 °C
SMILES: Cn1nc(OC(F)(F)C(F)C(F)(F)F)c(C(F)(F)F)c1-n1cc(-c2cc(Cl)c(Cl)c(C(=O)NC3(C#N)CC3)c2)cn1 (centres unmarked)

SMILES: Cn1nc(C(F)(F)C(F)(F)F)c(C(F)(F)F)c1-n1cc(-c2ccc(Cl)c(C(=O)NC3CC3)c2)cn1 [A, reference compound]
mortality at 0.2 ppm (Spodoptera littoralis [1]): 0%
mortality at 0.8 ppm (Spodoptera littoralis [1]): 15%
mortality at 3 ppm (Spodoptera littoralis [1]): 55%
mortality at 12.5 ppm (Spodoptera littoralis [1]): 85%

SMILES: Cn1nc(C(F)(F)C(F)(F)F)c(C(F)(F)F)c1-n1cc(-c2ccc(Cl)c(C(=O)NC3(C#N)CC3)c2)cn1 [B, reference compound]
Mortality (%) (Thrips tabaci [2]; 12.5 ppm): 100%
mortality at 0.05 ppm (Thrips tabaci [2]): 0%
mortality at 0.2 ppm (Thrips tabaci [2]): 25%
mortality at 0.781 ppm (Thrips tabaci [2]): 0%
mortality at 0.8 ppm (Thrips tabaci [2]): 90%
mortality at 3 ppm (Thrips tabaci [2]): 100%
mortality at 3.12 ppm (Thrips tabaci [2]): 25%
mortality at 12.5 ppm (Thrips tabaci [2]; 12.5 ppm): 90%
mortality at 50 ppm (Thrips tabaci [2]): 100%
mortality at 200 ppm (Thrips tabaci [2]): 100%
mortality at 0.2 ppm (Spodoptera littoralis [1]): 20%
mortality at 0.8 ppm (Spodoptera littoralis [1]): 75%
mortality at 3 ppm (Spodoptera littoralis [1]): 100%
mortality at 12.5 ppm (Spodoptera littoralis [1]): 100%

SMILES: Cn1nc(OC(F)C(F)(F)C(F)(F)F)c(C(F)(F)F)c1-n1cc(-c2ccc(Cl)c(C(=O)NC3(C#N)CC3)c2)cn1 (centres unmarked) [compound 4]
mortality at 12 ppm (Myzus persicae [3]; [7]): ≥ 80%
percent effect (mortality or growth inhibition) at 200 ppm (Euschistus heros): ≥ 80%
mortality at 200 ppm (Plutella xylostella; [8]): ≥ 80%
percent control (mortality, anti-feedant effect or growth inhibition) at 200 ppm (Spodoptera littoralis [4]): ≥ 80%
mortality at 0.05 ppm (Thrips tabaci [2]; read-out: Mortality (%)): 65%
mortality at 0.2 ppm (Thrips tabaci [2]; read-out: Mortality (%)): 90%
mortality at 0.8 ppm (Thrips tabaci [2]; read-out: Mortality (%)): 100%
mortality at 3 ppm (Thrips tabaci [2]; read-out: Mortality (%)): 100%
mortality at 12.5 ppm (Thrips tabaci [2]; [9]): 100%
mortality at 200 ppm (Diabrotica balteata; [10]): ≥ 80%
mortality at 200 ppm (Myzus persicae [5]; [11]): ≥ 80%
mortality at 200 ppm (Thrips tabaci [6]; [12]): ≥ 80%
mortality at 200 ppm (Tetranychus urticae; [13]): ≥ 80%

SMILES: Cn1nc(OC(F)(F)C(F)C(F)(F)F)c(C(F)(F)F)c1-n1cc(-c2ccc(Cl)c(C(=O)NC3CC3)c2)cn1 (centres unmarked) [compound 6]
mortality at 12 ppm (Myzus persicae [3]; [7]): ≥ 80%
percent effect (mortality or growth inhibition) at 200 ppm (Euschistus heros): ≥ 80%
mortality at 200 ppm (Plutella xylostella; [8]): ≥ 80%
percent control (mortality, anti-feedant effect or growth inhibition) at 200 ppm (Spodoptera littoralis [4]): ≥ 80%
mortality at 200 ppm (Diabrotica balteata; [10]): ≥ 80%
mortality at 0.2 ppm (Spodoptera littoralis [1]; 0.2 ppm, L3 larvae, 5 days after infestation, read-out: Mortality (%)): 0%
mortality at 0.8 ppm (Spodoptera littoralis [1]; 0.8 ppm, L3 larvae, 5 days after infestation, read-out: Mortality (%)): 0%
mortality at 3 ppm (Spodoptera littoralis [1]; 3.0 ppm, L3 larvae, 5 days after infestation, read-out: Mortality (%)): 100%
mortality at 12.5 ppm (Spodoptera littoralis [1]; 12.5 ppm, L3 larvae, 5 days after infestation, read-out: Mortality (%)): 100%
mortality at 200 ppm (Myzus persicae [5]; [11]): ≥ 80%
mortality at 200 ppm (Thrips tabaci [6]; [12]): ≥ 80%
mortality at 200 ppm (Tetranychus urticae; [13]): ≥ 80%

SMILES: Cn1nc(OC(F)(F)C(F)OC(F)(F)F)c(C(F)(F)F)c1-n1cc(-c2ccc(Cl)c(C(=O)NC3(C#N)CC3)c2)cn1 (centres unmarked) [compound 15]
mortality at 12 ppm (Myzus persicae [3]; [7]): ≥ 80%
percent effect (mortality or growth inhibition) at 200 ppm (Euschistus heros): ≥ 80%
mortality at 200 ppm (Plutella xylostella; [8]): ≥ 80%
percent control (mortality, anti-feedant effect or growth inhibition) at 200 ppm (Spodoptera littoralis [4]): ≥ 80%
mortality at 0.781 ppm (Thrips tabaci [2]; read-out: Mortality (%)): 0%
mortality at 3.12 ppm (Thrips tabaci [2]; read-out: Mortality (%)): 90%
mortality at 12.5 ppm (Thrips tabaci [2]; [9]): 90%
mortality at 50 ppm (Thrips tabaci [2]; read-out: Mortality (%)): 100%
mortality at 200 ppm (Thrips tabaci [2]; read-out: Mortality (%)): 100%
mortality at 200 ppm (Diabrotica balteata; [10]): ≥ 80%
mortality at 200 ppm (Myzus persicae [5]; [11]): ≥ 80%
mortality at 200 ppm (Thrips tabaci [6]; [12]): ≥ 80%
mortality at 200 ppm (Tetranychus urticae; [13]): ≥ 80%

SMILES: Cn1nc(OC(F)(F)C(F)(F)C(F)(F)F)c(C(F)(F)F)c1-n1cc(-c2ccc(Cl)c(C(=O)NC3(C#N)CC3)c2)cn1 [compound 35]
mortality at 12 ppm (Myzus persicae [3]): ≥ 80%
percent control (mortality or growth inhibition) at 200 ppm (Euschistus heros): ≥ 80%
mortality at 200 ppm (Plutella xylostella): ≥ 80%
mortality at 200 ppm (Spodoptera littoralis [4]): ≥ 80%
mortality at 200 ppm (Diabrotica balteata): ≥ 80%
mortality at 0.2 ppm (Spodoptera littoralis [1]): 0%
mortality at 0.8 ppm (Spodoptera littoralis [1]): 100%
mortality at 3 ppm (Spodoptera littoralis [1]): 100%
mortality at 12.5 ppm (Spodoptera littoralis [1]): 100%
mortality at 200 ppm (Myzus persicae [5]): ≥ 80%
mortality at 200 ppm (Thrips tabaci [6]): ≥ 80%
mortality at 200 ppm (Tetranychus urticae): ≥ 80%
